Measured values from article PMC7115414 (European Journal of Medicinal Chemistry, 2017).

Tests used:
SARS-CoV M^pro [1] = biological target: T1, SARS-CoV M^pro (Severe acute respiratory syndrome coronavirus, UniProt P0C6X7); experiment: biochemical
SARS-CoV M^pro [2] = biological target: T1, SARS-CoV M^pro; assay type: biochemical

SMILES: COC(=O)c1c[nH]c(SSc2ccccc2[N+](=O)[O-])n1 [Compound 3-14, Methyl 2-((2-nitrophenyl)disulfanyl)-1H-imidazole-4-carboxylate]
- IC50 (SARS-CoV M^pro [1]): 2.075 ± 0.016 µM

SMILES: CCOC(=O)c1ccccc1SSc1nc(C(=O)OC)c[nH]1 [Compound 3-15, Methyl 2-((2-(ethoxycarbonyl)phenyl)disulfanyl)-1H-imidazole-4-carboxylate]
- IC50 (SARS-CoV M^pro [1]): 5.95 ± 0.363 µM

SMILES: COC(=O)c1c[nH]c(SSc2ccccc2C(=O)OC)n1 [Compound 3-16, Methyl 2-((2-(methoxycarbonyl)phenyl)disulfanyl)-1H-imidazole-4-carboxylate]
- IC50 (SARS-CoV M^pro [1]): 3.96 ± 0.19 µM

SMILES: COC(=O)c1c[nH]c(SSc2ccc(Cl)cc2)n1 [Compound 3-17, Methyl 2-((4-chlorophenyl)disulfanyl)-1H-imidazole-4-carboxylate]
- IC50 (SARS-CoV M^pro [1]): 4.13 ± 0.094 µM

SMILES: Clc1ccc(SSc2nnco2)cc1 [Compound 3-31, 2-((4-chlorophenyl)disulfanyl)-1,3,4-oxadiazole]
- inhibition type (reciprocal plots, velocity versus substrate concentration) (SARS-CoV M^pro [2]): non-competitive inhibitor
- reversibility (plot of enzyme concentration versus reaction velocity) (SARS-CoV M^pro [2]): reversible
- α (effect of inhibitor on the affinity of the enzyme for its substrate) (SARS-CoV M^pro [2]): < 1

SMILES: Brc1ccc(SSc2ncccn2)cc1 [Compound 3-39, 2-((4-bromophenyl)disulfanyl)pyrimidine]
- inhibition type (reciprocal plots, velocity versus substrate concentration) (SARS-CoV M^pro [2]): non-competitive inhibitor
- reversibility (plot of enzyme concentration versus reaction velocity) (SARS-CoV M^pro [2]): reversible
- α (effect of inhibitor on the affinity of the enzyme for its substrate) (SARS-CoV M^pro [2]): < 1
